We go through three compounds from PMC2929565 (Toxicology and applied pharmacology, 2010).

The subject of series [1] is rats. As to conditions: rat, in vivo; cited from earlier work.
Series [2] has as its target rat Nav1.2 sodium channels (Rattus norvegicus, UniProt P04775, N209D). Format: cell-based.
Series [3] deals with rat Nav1.6 sodium channels (Rattus norvegicus, UniProt O88420). Format: cell-based. The following applies: for Steady-state inactivation K (slope factor) / Activation K (slope factor) / Activation V0.5 (midpoint potential) / Steady-state inactivation V0.5 (midpoint potential) / Tail current decay time constant, fast component (τ1) / Peak current inactivation time constant, fast component (τfast) / Peak current inactivation time constant, slow component (τslow): pyrethroid 100 μM; for Steady-state inactivation K (slope factor) / Activation K (slope factor) / Activation V0.5 (midpoint potential) / Steady-state inactivation V0.5 (midpoint potential): Boltzmann fit; for Steady-state inactivation K (slope factor): control 7.02 ± 0.13; for Activation K (slope factor): control 8.02 ± 0.23; for Activation V0.5 (midpoint potential): control −17.0 ± 0.4; for Steady-state inactivation V0.5 (midpoint potential): control −50.3 ± 0.3; for Tail current decay time constant, fast component (τ1) / Peak current inactivation time constant, fast component (τfast) / Peak current inactivation time constant, slow component (τslow): mean ± SE; for Peak current inactivation time constant, fast component (τfast): control 1.32 ± 0.03; for Peak current inactivation time constant, slow component (τslow): control 10.93 ± 2.25; for Effect of repetitive depolarization on modification (words): trains of high-frequency depolarizing prepulses.

Series [4] has as its system rats. Kind of series: Acute oral toxicity to rats. Format: in vivo, rat. As to conditions: ref Soderlund et al., 2002.
The mark [5] stands for this setting: 0 prepulses, Hill fit, mean ± SE of 5.
Where [6] appears, read: 100 prepulses, Hill fit, mean ± SE of 5.
Where [7] appears, read: EC10 0 prepulses vs 100 prepulses.

Read-outs that look alike come from different tables or passages of the source. Marks after values point to notes of the source that are not given here.

rat Nav1.6 sodium channels, sequence (O88420 whole entry): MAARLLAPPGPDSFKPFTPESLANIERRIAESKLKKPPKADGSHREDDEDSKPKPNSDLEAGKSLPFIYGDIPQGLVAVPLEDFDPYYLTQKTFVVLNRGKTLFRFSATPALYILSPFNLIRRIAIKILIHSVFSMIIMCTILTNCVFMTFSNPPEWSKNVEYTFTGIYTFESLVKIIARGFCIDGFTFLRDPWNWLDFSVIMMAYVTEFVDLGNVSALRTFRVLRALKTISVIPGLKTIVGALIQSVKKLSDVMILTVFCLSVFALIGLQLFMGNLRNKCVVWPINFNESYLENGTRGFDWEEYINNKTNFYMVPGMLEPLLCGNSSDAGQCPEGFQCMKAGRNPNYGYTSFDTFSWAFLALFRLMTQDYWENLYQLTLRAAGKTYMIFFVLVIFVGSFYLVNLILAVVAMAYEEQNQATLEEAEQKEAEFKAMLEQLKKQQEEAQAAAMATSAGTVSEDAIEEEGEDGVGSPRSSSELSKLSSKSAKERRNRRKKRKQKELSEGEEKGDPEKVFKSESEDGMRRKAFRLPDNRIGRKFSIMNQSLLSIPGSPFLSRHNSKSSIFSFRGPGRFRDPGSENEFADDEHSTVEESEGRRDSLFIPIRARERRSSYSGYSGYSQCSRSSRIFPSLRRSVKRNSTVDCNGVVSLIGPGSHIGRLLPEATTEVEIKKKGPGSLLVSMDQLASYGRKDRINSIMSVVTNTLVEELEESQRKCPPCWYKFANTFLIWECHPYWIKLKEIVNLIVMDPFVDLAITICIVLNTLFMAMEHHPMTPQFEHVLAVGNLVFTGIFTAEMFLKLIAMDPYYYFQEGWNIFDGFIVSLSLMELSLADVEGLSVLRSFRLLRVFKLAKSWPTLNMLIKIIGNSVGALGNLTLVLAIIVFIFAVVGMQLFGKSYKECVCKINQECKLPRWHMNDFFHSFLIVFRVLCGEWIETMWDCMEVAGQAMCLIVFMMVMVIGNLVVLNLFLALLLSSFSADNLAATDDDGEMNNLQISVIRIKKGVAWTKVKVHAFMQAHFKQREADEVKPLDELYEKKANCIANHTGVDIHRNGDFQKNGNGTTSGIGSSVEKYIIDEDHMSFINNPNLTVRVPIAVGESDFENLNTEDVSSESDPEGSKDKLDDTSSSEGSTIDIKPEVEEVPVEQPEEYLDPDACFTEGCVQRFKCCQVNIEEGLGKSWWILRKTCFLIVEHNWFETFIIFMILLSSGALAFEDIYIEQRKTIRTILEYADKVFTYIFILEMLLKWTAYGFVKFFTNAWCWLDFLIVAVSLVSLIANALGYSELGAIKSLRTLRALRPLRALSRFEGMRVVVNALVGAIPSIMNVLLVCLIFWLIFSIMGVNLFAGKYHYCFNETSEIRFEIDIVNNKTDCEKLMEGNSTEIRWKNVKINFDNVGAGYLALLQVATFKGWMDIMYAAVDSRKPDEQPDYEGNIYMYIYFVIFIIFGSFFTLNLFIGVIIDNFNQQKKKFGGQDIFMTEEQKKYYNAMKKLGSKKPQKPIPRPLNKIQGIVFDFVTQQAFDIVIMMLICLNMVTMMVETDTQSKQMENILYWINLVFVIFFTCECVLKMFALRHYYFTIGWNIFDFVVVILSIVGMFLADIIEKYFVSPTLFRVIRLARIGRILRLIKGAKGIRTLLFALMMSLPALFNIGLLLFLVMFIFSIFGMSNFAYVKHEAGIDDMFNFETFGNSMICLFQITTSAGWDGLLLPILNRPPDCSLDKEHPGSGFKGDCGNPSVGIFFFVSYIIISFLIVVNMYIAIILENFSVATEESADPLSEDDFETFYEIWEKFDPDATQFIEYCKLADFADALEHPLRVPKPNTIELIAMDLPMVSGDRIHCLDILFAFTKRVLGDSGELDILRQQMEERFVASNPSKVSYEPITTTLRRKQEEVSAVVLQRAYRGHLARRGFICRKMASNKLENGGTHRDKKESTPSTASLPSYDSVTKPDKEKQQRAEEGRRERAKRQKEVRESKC
rat Nav1.6 sodium channels, sequence (Q00954 19-218 partner): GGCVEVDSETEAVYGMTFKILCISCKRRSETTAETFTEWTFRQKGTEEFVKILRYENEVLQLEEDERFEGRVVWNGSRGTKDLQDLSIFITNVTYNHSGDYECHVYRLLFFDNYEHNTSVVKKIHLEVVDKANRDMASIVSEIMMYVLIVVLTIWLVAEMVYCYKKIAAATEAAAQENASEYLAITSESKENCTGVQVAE
rat Nav1.6 sodium channels, sequence (P54900 30-215 partner): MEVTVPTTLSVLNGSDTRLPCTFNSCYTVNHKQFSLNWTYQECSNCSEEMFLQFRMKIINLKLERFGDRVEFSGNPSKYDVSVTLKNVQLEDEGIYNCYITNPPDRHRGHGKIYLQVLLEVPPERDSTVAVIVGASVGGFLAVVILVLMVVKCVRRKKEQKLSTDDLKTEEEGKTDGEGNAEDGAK
rat Nav1.2 sodium channels, sequence (P04775 whole entry N209D): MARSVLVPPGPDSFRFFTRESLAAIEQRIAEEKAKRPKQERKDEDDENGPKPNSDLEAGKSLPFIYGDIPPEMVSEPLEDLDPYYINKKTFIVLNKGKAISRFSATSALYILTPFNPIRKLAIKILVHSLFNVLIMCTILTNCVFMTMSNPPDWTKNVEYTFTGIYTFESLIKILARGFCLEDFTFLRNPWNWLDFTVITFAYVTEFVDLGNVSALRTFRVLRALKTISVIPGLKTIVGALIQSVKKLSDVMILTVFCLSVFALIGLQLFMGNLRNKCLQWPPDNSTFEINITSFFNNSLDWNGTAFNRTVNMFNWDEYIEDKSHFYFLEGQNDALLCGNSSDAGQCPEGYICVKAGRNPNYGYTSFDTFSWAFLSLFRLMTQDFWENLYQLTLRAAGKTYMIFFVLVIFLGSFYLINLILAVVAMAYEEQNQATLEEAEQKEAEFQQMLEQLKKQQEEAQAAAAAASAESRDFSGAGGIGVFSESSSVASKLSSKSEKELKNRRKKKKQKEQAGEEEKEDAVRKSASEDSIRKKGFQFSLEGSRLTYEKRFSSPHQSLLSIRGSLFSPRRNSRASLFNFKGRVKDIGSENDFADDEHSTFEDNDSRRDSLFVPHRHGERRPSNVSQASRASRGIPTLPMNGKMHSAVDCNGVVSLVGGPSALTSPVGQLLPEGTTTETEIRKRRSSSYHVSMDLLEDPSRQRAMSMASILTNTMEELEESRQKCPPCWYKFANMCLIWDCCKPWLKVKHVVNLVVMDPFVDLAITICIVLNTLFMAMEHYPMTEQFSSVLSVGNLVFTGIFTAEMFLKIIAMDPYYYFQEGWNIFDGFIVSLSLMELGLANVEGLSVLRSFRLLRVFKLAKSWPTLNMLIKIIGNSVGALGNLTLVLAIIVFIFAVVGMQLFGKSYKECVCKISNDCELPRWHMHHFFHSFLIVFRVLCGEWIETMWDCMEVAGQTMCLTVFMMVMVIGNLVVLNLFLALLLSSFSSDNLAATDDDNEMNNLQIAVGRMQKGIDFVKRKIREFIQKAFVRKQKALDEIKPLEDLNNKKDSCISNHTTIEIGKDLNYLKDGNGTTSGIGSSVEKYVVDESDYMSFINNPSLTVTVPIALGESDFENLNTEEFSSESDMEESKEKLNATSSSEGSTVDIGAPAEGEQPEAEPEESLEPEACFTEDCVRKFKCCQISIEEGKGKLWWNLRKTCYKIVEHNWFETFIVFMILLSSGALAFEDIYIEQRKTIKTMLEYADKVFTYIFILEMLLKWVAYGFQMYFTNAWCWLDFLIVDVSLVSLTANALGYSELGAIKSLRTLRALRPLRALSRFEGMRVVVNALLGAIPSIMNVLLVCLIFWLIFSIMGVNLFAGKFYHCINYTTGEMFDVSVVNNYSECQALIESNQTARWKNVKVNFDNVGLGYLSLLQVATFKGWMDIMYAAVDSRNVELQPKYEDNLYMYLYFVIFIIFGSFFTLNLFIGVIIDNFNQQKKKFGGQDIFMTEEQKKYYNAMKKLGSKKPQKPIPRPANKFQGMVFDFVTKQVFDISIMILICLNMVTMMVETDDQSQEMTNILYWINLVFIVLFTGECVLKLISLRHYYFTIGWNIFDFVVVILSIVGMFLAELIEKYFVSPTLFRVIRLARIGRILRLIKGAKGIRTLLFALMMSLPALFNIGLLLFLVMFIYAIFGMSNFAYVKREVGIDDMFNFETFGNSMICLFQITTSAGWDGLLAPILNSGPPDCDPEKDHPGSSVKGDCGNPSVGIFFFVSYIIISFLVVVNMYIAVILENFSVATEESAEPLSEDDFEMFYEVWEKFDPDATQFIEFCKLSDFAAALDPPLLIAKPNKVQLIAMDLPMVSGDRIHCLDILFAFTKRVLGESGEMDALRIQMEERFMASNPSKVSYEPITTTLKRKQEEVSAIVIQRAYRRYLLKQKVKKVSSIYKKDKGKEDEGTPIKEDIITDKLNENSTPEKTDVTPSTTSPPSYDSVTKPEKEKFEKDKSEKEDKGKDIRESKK
rat Nav1.2 sodium channels, sequence (Q00954 19-218 partner): as the sequence (Q00954 19-218 partner) above
rat Nav1.2 sodium channels, sequence (P54900 30-215 partner): as the sequence (P54900 30-215 partner) above

For the compound `CC1(C)[C@H](C(=O)O[C@H](C#N)c2cccc(Oc3ccccc3)c2)[C@@H]1C=C(Br)Br` [deltamethrin], the “Acute oral LD50” value in series [1] is on record as 95 mg/kg.

Consider `Cc1c(F)c(F)c(COC(=O)[C@@H]2[C@H](/C=C(\Cl)C(F)(F)F)C2(C)C)c(F)c1F` (racemic) [tefluthrin], for which the “EC10, resting modification” value in series [2] (setting [5]) is 222 ± 82 µM. Besides, the “EC10, use-dependent modification” value in series [2] (setting [6]) turned out to be 16.9 ± 5.5 µM. Moreover, the “Increase of sensitivity (EC10) to the compound by repetitive depolarization” value in series [2] (setting [7]) was “approximately 13 fold”. Moreover, in series [3] (setting [5]), the “EC10, resting modification” value turned out to be 14.1 ± 3.7 µM. In addition, in series [3] (100 μM), the “Prepulse number up to which extent of modification increased, then stable” value was 80 prepulses and the “Tail current τ1 relative to S-bioallethrin-induced currents” value is “approximately 4 fold”. Moreover, the “Increase of extent of channel modification by repetitive depolarization” value in series [3] (100 μM, 100 prepulses vs 0 prepulses) stood at 2.8 fold. In addition, in series [3] (100 prepulses), the “Potency relative to deltamethrin as use-dependent modifier (EC10)” value is reported as ~ 10 fold. The “EC10, use-dependent modification” value in series [3] (setting [6]) was 0.95 ± 0.22 µM. In series [3] (setting [7]), the “Increase of sensitivity (EC10) to the compound by repetitive depolarization” value was ~ 15 fold. Moreover, the “Sensitivity of Nav1.6 isoform relative to Nav1.2 isoform (concentration–effect data)” value in series [3] (abstract summary, state not specified) is reported as “at least 15 fold”. Moreover, in series [3], the “Steady-state inactivation K (slope factor)” value was 6.03 ± 0.10 ^b, the “Activation K (slope factor)” value is 8.06 ± 0.21, the “Activation V0.5 (midpoint potential)” value is recorded as −17.0 ± 1.0 mV and the “Steady-state inactivation V0.5 (midpoint potential)” value is −52.3 ± 1.2 mV. In series [3], the “Tail current decay time constant, fast component (τ1)” value was 9.8 ± 0.6 ms; the “Peak current inactivation time constant, fast component (τfast)” value is on record as 1.12 ± 0.04 ^d ms; the “Peak current inactivation time constant, slow component (τslow)” value is recorded as 19.00 ± 0.64 ^d ms. Moreover, in series [4], the “Acute oral LD50 lower than that of deltamethrin” value is “approximately 5 fold”.

Consider `C=CCC1=C(C)[C@@H](OC(=O)[C@@H]2[C@@H](C=C(C)C)C2(C)C)CC1=O` [S-bioallethrin], for which the “Increase of inactivation-resistant current relative to control” value in series [3] (100 μM, prepulses above 0 mV, control approximately 2% of total current) was “approximately five-fold”. Further, the “Effect of repetitive depolarization on modification (words)” value in series [3] (100 μM) was “decreased slightly”. Further, the “Effect of repetitive depolarization on modification (words)” value in series [3] (100 μM, listed as S-Bioallethrin) is on record as “no further enhancement of modification”. In series [3], the “Steady-state inactivation K (slope factor)” value was 6.24 ± 0.23, the “Activation K (slope factor)” value was 7.78 ± 0.52, the “Activation V0.5 (midpoint potential)” value is recorded as −19.2 ± 1.1 mV and the “Steady-state inactivation V0.5 (midpoint potential)” value was −52.8 ± 1.1 mV. Further, in series [3], the “Tail current decay time constant, fast component (τ1)” value came to 2.3 ± 0.4 ms; the “Peak current inactivation time constant, fast component (τfast)” value was 2.11 ± 0.12 ^d ms; the “Peak current inactivation time constant, slow component (τslow)” value is listed as 7.30 ± 0.35 ^d ms.
